Data as given in US8492346B2, “Methods of use of epsilon inhibitor compounds for the attenuation of pain” (KAI Pharmaceuticals, Inc., priority 2007, dated 2013).

Experiments:
[1] = Plasma stability in human sera; format: in vitro ADME
Protocol: (§1) The plasma and chemical stability of various cargo/carrier peptide constructs described in Example 1 was tested. Plasma stability of the compounds was tested using both human and rat sera and the amount of starting material was determined after 30 minutes of treatment. Chemical stability was evaluated by determining the amount of starting material remaining after 9 days of treatment.
(§2) The plasma stability of various cargo/carrier peptide constructs described in Example 1 was tested using both human and rat sera and the amount of starting material was determined over time to 30 minutes of treatment. The time course data for cargo/carrier peptides KP-1586, KP-1630, and KP-1631 is shown in FIG. 3, the data for peptides KP-1632, KP-1633, and KP-1634 is shown in FIG. 4, and the data for peptides KP-1635, KP-1636, and KP-1637 is shown in FIG. 5.

[2] = Plasma stability in rat sera; format: in vitro ADME; conditions: 30 minutes
Protocol: as §1, §2

[3] = Chemical stability of cargo/carrier peptide constructs; format: physicochemical; conditions: 9 days of treatment
Protocol: as §1
The chemical stability of various cargo/carrier peptide constructs described in Example 1 was tested by examining the relative concentration of the peptides over a time period of more than 200 hours at 37° C.

For `CC(=O)N[C@@H](CSSC[C@H](NC(C)=O)C(=O)N[C@@H](CCC(=O)O)C(=O)N[C@@H](C)C(=O)N[C@H](C(=O)N[C@@H](CO)C(=O)N[C@@H](CC(C)C)C(=O)N[C@@H](CCCCN)C(=O)N1CCC[C@H]1C(=O)N[C@H](C(N)=O)[C@@H](C)O)C(C)C)C(=O)N[C@@H](Cc1ccc(O)cc1)C(=O)NCC(=O)N[C@@H](CCCNC(=N)N)C(=O)N[C@@H](CCCCN)C(=O)N[C@@H](CCCCN)C(=O)N[C@@H](CCCNC(=N)N)C(=O)N[C@@H](CCCNC(=N)N)C(=O)N[C@@H](CCC(N)=O)C(=O)N[C@@H](CCCNC(=N)N)C(=O)N[C@@H](CCCNC(=N)N)C(=O)N[C@@H](CCCNC(=N)N)C(N)=O` [KP-1630, Ac-C-E-A-V-S-L-K-P-T-NH2], which “Plasma stability, time course to 30 minutes” value ([1]; human and rat sera, FIGS. 3-5) is on record?
Its value is “little impact on plasma stability”.

And the remaining at 0.5 h ([1]; plasma, human sera, 30 minutes)?
Its remaining at 0.5 h is 76%.

And the remaining at 0.5 h [2]?
Its remaining at 0.5 h is 77%.

And the remaining at 216 h [3]?
Its remaining at 216 h is 67%.
